# Test results published in patent publication US20100279324A1, “Assay For Detecting Mycobacterial Infection” (The University of Birmingham, priority 2007, published 2010).
# System: T cells present in the PBL's
# Format: cell-based, human
# Details: anti-CD1b antibody, TB patients
substance,measurement,value
mycolic acid,CD1b restriction of antigen-specific response,CD1b restricted
